Assay results published in US20260242362A1, “PREPARATION OF 3,4,5-TRISUBSTITUTED TRIAZOLES AND METHODS OF USING THE SAME” (University of Florida Research Foundation, Incorporated, priority 2023, published 2026).

Columns and labels:
kappa opioid receptor [1] = molecular target: T1, kappa opioid receptor (Homo sapiens, UniProt P41145); experiment: PathHunter DiscoverX β-arrestin2 recruitment (enzyme fragment complementation) assay; format: cell-based; settings: for β-arrestin2 maximum stimulation observed at 10 μM (starred Emax cells / % max at 10 uM): * compounds that did not reach plateau; for EC50: 3 parameter nonlinear regression, nc = did not converge, read-out: β-arrestin2 EC50; for β-arrestin2 Emax (% U60): relative to U69,593 = 100% Emax, ~ did not plateau at 100%
Target sequence in this assay (P41145 whole entry, the tested form may be a part): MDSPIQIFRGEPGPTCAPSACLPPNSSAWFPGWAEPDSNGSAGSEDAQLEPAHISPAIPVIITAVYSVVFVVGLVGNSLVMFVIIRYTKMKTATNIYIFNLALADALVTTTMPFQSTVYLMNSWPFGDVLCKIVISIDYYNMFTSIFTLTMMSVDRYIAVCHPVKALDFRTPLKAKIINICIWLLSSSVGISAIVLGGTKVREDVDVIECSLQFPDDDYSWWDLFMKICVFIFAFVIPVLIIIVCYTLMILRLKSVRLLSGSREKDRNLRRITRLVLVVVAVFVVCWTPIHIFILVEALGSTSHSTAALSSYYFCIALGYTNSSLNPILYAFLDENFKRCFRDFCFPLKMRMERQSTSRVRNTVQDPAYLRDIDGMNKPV
Target sequence in this assay (P32121 whole entry partner, the tested form may be a part): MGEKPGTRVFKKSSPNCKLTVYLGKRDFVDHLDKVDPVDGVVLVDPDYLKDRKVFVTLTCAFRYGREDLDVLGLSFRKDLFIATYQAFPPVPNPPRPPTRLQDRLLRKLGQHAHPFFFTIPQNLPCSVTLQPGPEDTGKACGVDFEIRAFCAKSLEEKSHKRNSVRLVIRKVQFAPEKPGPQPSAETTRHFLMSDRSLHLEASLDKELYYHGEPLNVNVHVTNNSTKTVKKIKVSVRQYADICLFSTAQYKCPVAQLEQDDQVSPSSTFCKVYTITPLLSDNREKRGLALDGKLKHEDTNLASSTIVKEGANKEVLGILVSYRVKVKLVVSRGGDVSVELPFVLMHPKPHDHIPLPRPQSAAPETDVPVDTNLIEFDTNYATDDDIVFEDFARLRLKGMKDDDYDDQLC

kappa opioid receptor [2] = molecular target: T1, kappa opioid receptor; experiment: GTPγS binding assay (G-protein activation); format: biochemical; settings: for GTPγS Emax (% U60): relative to U69,593 = 100% Emax; for EC50: 3 parameter nonlinear regression, nc = did not converge; for GTPγS maximum stimulation observed at 10 μM (starred Emax cells): * compounds that did not reach plateau
Target sequence in this assay (P41145 whole entry, the tested form may be a part): as the sequence (P41145 whole entry, the tested form may be a part) above

[3] = mouse, microsomes
Experimental: Microsomal stability was determined using mouse hepatic microsomes and LC/MS detections over time (Zhou et al., 2013, 22).

Compound	GTPγS Emax (% U60) (kappa opioid receptor [2])	Microsomal Stability [3]	EC50 (kappa opioid receptor [1]) [nM]	EC50 (kappa opioid receptor [2]) [nM]	β-arrestin2 Emax (% U60) (kappa opioid receptor [1])	also measured
Cc1ccc(/C=C/c2nnc(-c3nccn3C)n2Cc2ccco2)cc1C(F)(F)F [51 (UNC9012)]	76.1					β-arrestin2 maximum stimulation observed at 10 μM (starred Emax cells / % max at 10 uM) (kappa opioid receptor [1]): 17.3 (% max at 10 uM) % U60
Cc1ccc(/C=C/c2nnc(-c3ccccn3)n2Cc2cccs2)cc1C(F)(F)F [Compound 47]	83	22.0 min				β-arrestin2 maximum stimulation observed at 10 μM (starred Emax cells / % max at 10 uM) (kappa opioid receptor [1]): 36* % U60; KOR potency / activity in words (SAR commentary) (kappa opioid receptor [2]): completely inactive
Cc1ccc(CCc2nnc(-c3cccn3C)n2Cc2cccs2)cc1C(F)(F)F [Compound 23]		3.1 min	1320	36		
Cc1ccc(CCc2nnc(-c3ccccn3)n2Cc2ncco2)cc1C(F)(F)F [Compound 5a]			532	38		
Brc1cccc(CCc2nnc(-c3ccccn3)n2Cc2cccs2)c1 [Compound 29]	89	3.1 min	5020		114	
Cc1ccc(CCc2nnc(-c3ccccn3)n2CC2CC2)cc1C(F)(F)F [Compound 13]		0.9 min				
c1ccc(-c2nnc(C3CCc4ccccc4C3)n2Cc2cccs2)nc1 (stereo not drawn) [Compound 37]		13.1 min				
Cn1ccnc1-c1nnc(CCc2ccc(Cl)cc2)n1Cc1nccs1 [Compound 53]	94	2.4 min	5020	2250	81	
Cc1ccc(CCc2nnc(-c3ccccn3)n2-c2ccc3ccccc3c2)cc1C(F)(F)F [Compound 12a]				10300		
Cc1cc(CCc2nnc(-c3ccccn3)n2Cc2cccs2)ccc1C(F)(F)F [Compound 39a]				3.1		
Cc1ccc(CCc2nnc(-c3ccccn3)n2Cc2ccccc2)cc1C(F)(F)F [Compound 8]		0.9 min	6340		180	
Cc1ccc(CCc2nnc(-c3ccncn3)n2Cc2cccs2)cc1C(F)(F)F [Compound 18]		1.1 min	> 10000			β-arrestin2 maximum stimulation observed at 10 μM (starred Emax cells / % max at 10 uM) (kappa opioid receptor [1]): 66* % U60
Cc1ccc(CCc2nnc(-c3cccc4ccccc34)n2Cc2cccs2)cc1C(F)(F)F [Compound 20]		0.9 min	> 10000			β-arrestin2 maximum stimulation observed at 10 μM (starred Emax cells / % max at 10 uM) (kappa opioid receptor [1]): 76* % U60
Cc1ccc(/C=C/c2nnc(-c3nccn3C)n2Cc2cccs2)cc1C(F)(F)F [52 (UNC9166)]	74.2	12.2 min	55800	349		β-arrestin2 maximum stimulation observed at 10 μM (starred Emax cells / % max at 10 uM) (kappa opioid receptor [1]): 37.7 (% max at 10 uM) % U60
Brc1ccccc1CCc1nnc(-c2ccccn2)n1Cc1cccs1 [Compound 30]	84	1.7 min	> 10000			β-arrestin2 maximum stimulation observed at 10 μM (starred Emax cells / % max at 10 uM) (kappa opioid receptor [1]): 53* % U60
c1ccc(-c2nnc(CCc3ccc4ccccc4c3)n2Cc2cccs2)nc1 [Compound 36]		2.4 min				
Cc1ccc(CCc2nnc(-c3nccn3C)n2Cc2ccco2)cc1C(F)(F)F [Compound 54]	92	1.6 min	788	69	112	Emax (weak partial agonist) (kappa opioid receptor [1]; text b193, assay not named): about 26%
Cc1ccc(CCc2nnc(-c3ccccc3)n2Cc2cccs2)cc1C(F)(F)F [Compound 14]		1.8 min	> 10000		~100	
C(=C/c1nnc(-c2ccccn2)n1Cc1ccco1)/c1ccccc1 [Compound 38]		19.4 min				β-arrestin2 maximum stimulation observed at 10 μM (starred Emax cells / % max at 10 uM) (kappa opioid receptor [1]): 0* % U60; GTPγS maximum stimulation observed at 10 μM (starred Emax cells) (kappa opioid receptor [2]): 3* % U60
Cc1ccc(CCc2nnc(-c3ccccn3)n2Cc2ccccn2)cc1C(F)(F)F [Compound 10]	784	1.0 min	7690		125	
FC(F)(Cc1ccccc1)c1nnc(-c2ccccn2)n1Cc1ccco1 [Compound 44]						KOR potency / activity in words (SAR commentary) (kappa opioid receptor [2]): completely inactive
Cc1ccc(CCCc2nnc(-c3ccccn3)n2Cc2ccco2)cc1C(F)(F)F [Compound 3]	74	1.6		812		
Cc1ccc(CN(Cc2ccco2)C(=O)c2ccccn2)cc1C(F)(F)F [Compound 57]	92	1.8 min	3130	368	87	
c1ccc(-c2nnc(CCc3cccc4ccccc34)n2Cc2cccs2)nc1 [Compound 35]		1 min	> 10000		67	

Compound	GTPγS Emax (% U60) (kappa opioid receptor [2])	Microsomal Stability [3]	EC50 (kappa opioid receptor [1]) [nM]	EC50 (kappa opioid receptor [2]) [nM]	β-arrestin2 Emax (% U60) (kappa opioid receptor [1])	also measured
Clc1ccc(CCc2nnc(-c3ccccn3)n2Cc2ccco2)cc1 [Compound 52]	84	3.3 min	4530	99	191	
Fc1ccc(CCc2nnc(-c3ccccn3)n2Cc2cccs2)cc1 [Compound 26]	92	3.1 min	3020	288	75	
Cc1ccc(/C=C/c2nnc(-c3nccn3C)n2Cc2nccs2)cc1C(F)(F)F [53 (UNC9081)]		14.5 min	1570	309		β-arrestin2 maximum stimulation observed at 10 μM (starred Emax cells / % max at 10 uM) (kappa opioid receptor [1]): 25.9 (% max at 10 uM) % U60
Cc1ccc(CCc2nnc(-c3ccccn3)n2Cc2ccncc2)cc1C(F)(F)F [Compound 12]		0.9 min				β-arrestin2 maximum stimulation observed at 10 μM (starred Emax cells / % max at 10 uM) (kappa opioid receptor [1]): 12* % U60; GTPγS maximum stimulation observed at 10 μM (starred Emax cells) (kappa opioid receptor [2]): 48* % U60
Cc1ccc(CCc2nnc(-c3ccccn3)n2CC2CCCO2)cc1C(F)(F)F (stereo not drawn) [Compound 17a]			5430	104		
FC(Cc1ccccc1)c1nnc(-c2ccccn2)n1Cc1ccco1 (stereo not drawn) [Compound 43]		9.1 min	> 10000	3820		β-arrestin2 maximum stimulation observed at 10 μM (starred Emax cells / % max at 10 uM) (kappa opioid receptor [1]): 7* % U60
COc1ccc(CCc2nnc(-c3ccccn3)n2Cc2cccs2)cc1 [Compound 25]		5.6 min	> 10000		124	
OC(Cc1nnc(-c2ccccn2)n1Cc1ccco1)c1ccccc1 (stereo not drawn) [Compound 45]		20.7 min				
Cc1ccc(/C=C/c2nnc(-c3nccn3C)n2Cc2cccs2)cc1C(F)(F)F [Compound 50]	77	12.2 min	55800	1010		β-arrestin2 maximum stimulation observed at 10 μM (starred Emax cells / % max at 10 uM) (kappa opioid receptor [1]): 38* % U60
Cc1ccc(CCc2nnc(-c3ccccn3)n2Cc2ccsc2)cc1C(F)(F)F [Compound 6]		1.0 min	813	12		
Cc1ccc(/C=C/c2nnc(-c3nccn3C)n2Cc2nccs2)cc1C(F)(F)F [Compound 51]		14.5 min	1680	309	34	
Cc1ccc(CCc2nnc(-c3ncccc3C)n2Cc2cccs2)cc1C(F)(F)F [Compound 19]		1.1 min	1550		117	
Cc1ccc(CCc2nnc(-c3ncccn3)n2Cc2cccs2)cc1C(F)(F)F [Compound 17]		0.8 min	2180		150	
FC(Cc1nnc(-c2ccccn2)n1Cc1cccs1)c1ccccc1 (stereo not drawn) [Compound 46]		69.7 min	> 10000	1060		β-arrestin2 maximum stimulation observed at 10 μM (starred Emax cells / % max at 10 uM) (kappa opioid receptor [1]): 64* % U60
FC(F)(F)c1ccc(CCc2nnc(-c3ccccn3)n2Cc2cccs2)cc1Cl [Compound 34]		1.3 min	127	1.4		
Cc1ccc(CCc2nnc(-c3ccccn3)n2Cc2cccnc2)cc1C(F)(F)F [Compound 11]	90	1.7 min	479	70	105	
O=C(Cc1ccccc1)c1nnc(-c2ccccn2)n1Cc1ccco1 [Compound 42]		8.1 min			2	metabolic stability in words [3]: increased metabolic stability; KOR potency / activity in words (SAR commentary) (kappa opioid receptor [2]): loss in potency; GTPγS maximum stimulation observed at 10 μM (starred Emax cells) (kappa opioid receptor [2]): 4* % U60
Cc1ccc(CCc2nnc(-c3ccccn3)n2-c2cccc3ccccc23)cc1C(F)(F)F [Compound 11a]				2650		
FC(F)(F)c1ccccc1CCc1nnc(-c2ccccn2)n1Cc1cccs1 [Compound 31]		3.0 min	> 10000		44	
Cc1ccc(CCc2nnc(-c3cccnc3)n2Cc2cccs2)cc1C(F)(F)F [Compound 15]	85	1.0 min				β-arrestin2 maximum stimulation observed at 10 μM (starred Emax cells / % max at 10 uM) (kappa opioid receptor [1]): 14* % U60
Cc1ccc(CCc2nnc(-c3ccc4ccccc4c3)n2Cc2cccs2)cc1C(F)(F)F [Compound 21]		1.3 min				β-arrestin2 maximum stimulation observed at 10 μM (starred Emax cells / % max at 10 uM) (kappa opioid receptor [1]): 16* % U60
Cc1ccc(CCc2nnc(-c3ccccn3)n2-c2ccccc2)cc1C(F)(F)F						KOR potency / activity in words (SAR commentary) (kappa opioid receptor [2]): potency was completely lost
Cc1ccc(CCc2nnc(-c3ccccn3)n2CCc2ccccc2)cc1C(F)(F)F [Compound 13a]				1940		
Cc1ccc(CCc2nnc(-c3ccc4ccccc4n3)n2Cc2cccs2)cc1C(F)(F)F [Compound 22]		2.2 min	> 10000		~100	
